In patent US9617286B2, “Fungicide N-[(trisubstitutedsilyl)methyl]-carboxamide derivatives” (BAYER INTELLECTUAL PROPERTY GMBH, priority 2011, dated 2017):

How the values were obtained:
[1] = test system: Puccinia recondita; experiment: In vivo preventive test on Puccinia recondita (brown rust on wheat); settings: preventive spray, 500 ppm of active ingredient, grading 12 days after contamination
Experimental: Wheat plants (“Scipion” variety), sown in starter cups on a 50/50 peat soil pozzolana substrate and grown at 22° C., are treated at the 1 leaf stage (10 cm height) by spraying with the active ingredient prepared as described above. Plants, used as controls, are treated with the mixture of acetone/tween/DMSO/water not containing the active material. After 24 hours, the plants are contaminated by spraying the leaves with an aqueous suspension of Puccinia recondita spores (100 000 spores per mL). The spores are collected from an infected plant and are suspended in water containing 2.5 mL/L of Tween 80 at 10%. The contaminated wheat plants are incubated for 24 hours at 20° C. and at 100% relative humidity, and then for 10 days at 20° C. and at 70-80% relative humidity. Grading (% of efficacy) is carried out 12 days after the contamination, in comparison with the control plants.

[2] = test system: Alternaria brassicae; experiment: In vivo preventive test on Alternaria brassicae (leaf spot on radish); settings: preventive spray, 500 ppm of active ingredient, grading 6 days after contamination
Experimental: Radish plants (“Pernod Clair” variety), sown in starter cups on a 50/50 peat soil pozzolana substrate and grown at 17° C., are treated at the cotyledon stage by spraying with the active ingredient prepared as described above. Plants, used as controls, are treated with the mixture of acetone/tween/DMSO/water not containing the active material. After 24 hours, the plants are contaminated by spraying the cotyledons with an aqueous suspension of Alternaria brassicae spores (50 000 spores per mL). The spores are collected from a 15-day-old culture. The contaminated radish plants are incubated at 20° C. and at 100% relative humidity. Grading (% of efficacy) is carried out 6 days after the contamination, in comparison with the control plants.

[3] = test system: Septoria tritici; experiment: In vivo preventive test on Septoria tritici (wheat); settings: preventive spray, 500 ppm of active ingredient, grading 24 days after contamination
Experimental: Wheat plants (“Scipion” variety), sown in starter cups on a 50/50 peat soil pozzolana substrate and grown at 22° C., are treated at the 1 leaf stage (10 cm height) by spraying with the active ingredient prepared as described above. Plants, used as controls, are treated with the mixture of acetone/tween/DMSO/water not containing the active material. After 24 hours, the plants are contaminated by spraying the leaves with an aqueous suspension of cryopreserved Septoria tritici spores (500 000 spores per mL). The contaminated wheat plants are incubated for 72 hours at 18° C. and at 100% relative humidity, and then for 21 days at 90% relative humidity. Grading (% of efficacy) is carried out 24 days after the contamination, in comparison with the control plants.

[4] = log P by HPLC on reversed-phase column (C 18), EEC Directive 79/831 Annex V.A8; assay type: physicochemical; settings: 40° C., 0.1% aqueous formic acid and acetonitrile, linear gradient 10% to 90% acetonitrile
Experimental: In table 1, the log P values were determined in accordance with EEC Directive 79/831 Annex V.A8 by HPLC (High Performance Liquid Chromatography) on a reversed-phase column (C 18), using the method described below:
Temperature: 40° C.; Mobile phases: 0.1% aqueous formic acid and acetonitrile; linear gradient from 10% acetonitrile to 90% acetonitrile.
Calibration was carried out using unbranched alkan-2-ones (comprising 3 to 16 carbon atoms) with known log P values (determination of the log P values by the retention times using linear interpolation between two successive alkanones). lambda-max-values were determined using UV-spectra from 200 nm to 400 nm and the peak values of the chromatographic signals.

[5] = test system: Pyrenophora teres; experiment: In vivo preventive test on Pyrenophora teres (barley); settings: preventive spray (DMF/alkylaryl polyglycol ether), 500 ppm of active ingredient, evaluated 7-9 days after inoculation
Experimental: Solvent: 49 parts by weight of N,N-dimethylformamide Emulsifier: 1 part by weight of alkylaryl polyglycol ether To produce a suitable preparation of active compound, 1 part by weight of active compound is mixed with the stated amounts of solvent and emulsifier, and the concentrate is diluted with water to the desired concentration. To test for preventive activity, young plants are sprayed with the preparation of active compound at the stated rate of application. One day after this treatment, the plants are inoculated with an aqueous spore suspension of Pyrenophora teres. The plants remain for 48 hours in an incubation cabinet at 22° C. and a relative atmospheric humidity of 100%. Then the plants are placed in a greenhouse at a temperature of approximately 20° C. and a relative atmospheric humidity of approximately 80%.

[6] = test system: Sphaerotheca fuliginea; experiment: In vivo preventive test on Sphaerotheca fuliginea (powdery mildew on cucurbits); settings: gherkin plants, preventive spray, 500 ppm of active ingredient, grading 12 days after contamination
Experimental: Gherkin plants (“Vert petit de Paris” variety), sown in starter cups on a 50/50 peat soil-pozzolana substrate and grown at 24° C., are treated at the Z11 cotyledon stage by spraying with the active ingredient prepared as described above. Plants, used as controls, are treated with the mixture of acetone/tween/DMSO/water not containing the active material. After 24 hours, the plants are contaminated by spraying the cotyledons with an aqueous suspension of Sphaerotheca fuliginea spores (100 000 spores per mL). The spores are collected from infected plants. The contaminated gherkin plants are incubated at about 20° C. and at 70-80% relative humidity. Grading (% of efficacy) is carried out 12 days after the contamination, in comparison with the control plants.

[7] = test system: Alternaria solani; experiment: In vivo preventive test on Alternaria solani (tomato); settings: preventive spray, 500 ppm of active ingredient, evaluated 7 days after inoculation
Experimental: Solvent: 49 parts by weight of N,N-dimethylformamide Emulsifier: 1 part by weight of alkylaryl polyglycol ether To produce a suitable preparation of active compound, 1 part by weight of active compound is mixed with the stated amounts of solvent and emulsifier, and the concentrate is diluted with water to the desired concentration. To test for preventive activity, young plants are sprayed with the preparation of active compound at the stated rate of application. One day after this treatment, the plants are inoculated with an aqueous spore suspension of Alternaria solani. The plants remain for one day in an incubation cabinet at approximately 22° C. and a relative atmospheric humidity of 100%. Then the plants are placed in an incubation cabinet at approximately 20° C. and a relative atmospheric humidity of 96%.

| SMILES | Efficacy [1] | Efficacy [2] | Efficacy [3] | logP [4] | Efficacy [5] | Efficacy [6] | Efficacy [7] |
| --- | --- | --- | --- | --- | --- | --- | --- |
| C[Si](C)(CN(C(=O)c1nccnc1C(F)(F)F)C1CC1)c1cc(F)ccc1Cl [Example 49] | 88% | 75% | 100% | 4.59 | 97% | – | – |
| C[Si](C)(CN(C(=O)c1cccnc1C(F)F)C1CC1)c1ccccc1C(F)(F)F [Example 56] | – | 88% | 100% | 3.94 | 100% | 83% | – |
| C[Si](C)(CN(C(=O)c1cccnc1C(F)F)C1CC1)c1ccccc1F [Example 16] | – | 95% | 71% | 3.51 | 100% | – | – |
| C[Si](C)(CN(C(=O)c1nccnc1C(F)(F)F)C1CC1)c1ccccc1 [Example 9] | – | – | 86% | 4.13 | 100% | – | – |
| C[Si](C)(Cc1ccc(Cl)cc1Cl)CN(C(=O)c1cccnc1C(F)F)C1CC1 [Example 110] | – | – | – | 4.74 | 95% | – | 70% |
| C[Si](C)(CN(C(=O)c1cccnc1C(F)F)C1CC1)c1ccccc1Cl [Example 28] | – | – | – | 3.83 | 100% | – | 89% |
| CC[Si](C)(CN(C(=O)c1cccnc1Cl)C1CC1)c1ccccc1Cl (stereo not drawn) [Example 38] | – | – | 80% | 4.34 | – | – | – |
| C[Si](C)(CN(C(=O)c1nccnc1C(F)(F)F)C1CC1)c1ccc(F)cc1Cl [Example 52] | – | 100% | 97% | 4.67 | 100% | 94% | – |
| C[Si](C)(CNC(=O)c1cccnc1C(F)F)c1cc(Cl)cc(Cl)c1 [Example 63] | 97% | – | 96% | 3.69 | 95% | 71% | 95% |
| CCc1ccccc1[Si](C)(C)CN(C(=O)c1nccnc1C(F)(F)F)C1CC1 [Example 21] | 75% | – | 86% | 4.77 | 100% | 98% | – |
| C[Si](C)(CN(C(=O)c1cccnc1C(F)F)C1CC1)c1cc(F)ccc1Cl [Example 51] | 88% | – | 100% | 3.89 | 97% | – | – |
| Cc1ccccc1[Si](C)(C)CN(C(=O)c1cccnc1C(F)F)C1CC1 [Example 12] | – | 88% | 79% | 3.73 | 97% | – | – |
| C[Si](C)(CN(C(=O)c1cccnc1C(F)(F)F)C1CC1)c1ccsc1 [Example 91] | – | – | – | 3.72 | 70% | – | 78% |
| C[Si](C)(CNC(=O)c1cccnc1C(F)(F)F)c1ccccc1Cl [Example 39] | – | – | 96% | 3.25 | – | – | – |
| C[Si](C)(CNC(=O)c1cccnc1Cl)c1ccccc1Cl [Example 40] | – | – | 96% | 2.94 | – | – | – |
| Cc1ccccc1[Si](C)(C)CN(C(=O)c1cccnc1C(F)(F)F)C1CC1 [Example 11] | 88% | 88% | – | 4.18 | 97% | 94% | – |

| SMILES | Efficacy [1] | Efficacy [2] | Efficacy [3] | logP [4] | Efficacy [5] | Efficacy [6] | Efficacy [7] |
| --- | --- | --- | --- | --- | --- | --- | --- |
| C[Si](C)(CN(C(=O)c1cccnc1C(F)(F)F)C1CC1)c1ccc(F)cc1Cl [Example 47] | – | 75% | 93% | 4.41 | 97% | – | – |
| C[Si](C)(CN(C(=O)c1nccnc1C(F)(F)F)C1CC1)c1ccccc1C(F)(F)F [Example 54] | – | – | 93% | 4.61 | 100% | 83% | – |
| C[Si](C)(CN(C(=O)c1cccnc1C(F)F)C1CC1)c1ccsc1 [Example 87] | – | – | – | 3.27 | 100% | – | 88% |
| C[Si](C)(Cc1cc(Cl)cc(Cl)c1)CN(C(=O)c1cccnc1C(F)F)C1CC1 [Example 117] | – | – | – | 4.77 | 90% | – | 75% |
| C[Si](C)(CNC(=O)c1nccnc1C(F)(F)F)c1ccccc1 [Example 7] | – | – | 93% | 3.15 | 100% | – | – |
| C[Si](C)(CNC(=O)c1nccnc1C(F)(F)F)c1ccccc1Cl [Example 41] | – | – | 90% | 3.50 | – | 78% | – |
| C[Si](C)(CN(C(=O)c1cccnc1Cl)C1CC1)c1ccccc1F [Example 17] | – | – | 79% | 3.58 | 86% | – | – |
| C[Si](C)(CNC(=O)c1cccnc1C(F)F)c1cccc(Cl)c1 [Example 29] | – | – | – | 3.15 | 95% | – | 95% |
| C[Si](C)(CN(C(=O)c1cccnc1C(F)F)C1CC1)c1ccccc1 [Example 5] | – | 96% | 80% | 3.44 | – | 89% | – |
| C[Si](C)(Cc1cccc(Cl)c1)CN(C(=O)c1cccnc1C(F)F)C1CC1 [Example 104] | – | – | – | 4.16 | 80% | – | 90% |
| C[Si](C)(CN(C(=O)c1cccnc1C(F)(F)F)C1CC1)c1ccccc1C(F)(F)F [Example 55] | – | – | 64% | 4.39 | 97% | – | – |
| Cc1ccccc1[Si](C)(C)CN(C(=O)c1nccnc1C(F)(F)F)C1CC1 [Example 10] | – | 88% | 79% | 4.41 | 100% | 78% | – |
| C[Si](C)(CNC(=O)c1cccnc1Cl)c1ccccc1 [Example 3] | 75% | – | 90% | 2.61 | – | – | – |
| C[Si](C)(CN(C(=O)c1cccnc1C(F)(F)F)C1CC1)c1ccccc1 [Example 8] | – | 88% | 100% | 3.89 | 100% | – | – |
| Cc1ccccc1[Si](C)(C)CN(C(=O)c1cccnc1Cl)C1CC1 [Example 13] | – | – | 97% | 3.80 | 100% | – | – |
| C[Si](C)(CN(C(=O)c1cccnc1C(F)(F)F)C1CC1)c1ccccc1F [Example 15] | 75% | – | 71% | 3.96 | 100% | 72% | – |
